Source: patent publication US10815205B2, “Amide-substituted phenyltriazole derivatives and uses thereof” (BAYER PHARMA AKTIENGESELLSCHAFT, priority 2016, dated 2020)

Legend:
[1] = target: T1, human V2 receptor (Homo sapiens, UniProt P30518); experiment: Cellular in vitro assay for vasopressin receptor activity, V2 receptor cell line (CRE-luciferase); format: cell-based; conditions: Table 1A; CHO cell line transfected with human V2 receptor; [Arg8]-vasopressin at EC50; read-out: IC50 hV2
T1 construct: expressed in transfected cells; host or cells: CHO K1 (ATCC) expressing firefly luciferase under a CRE-responsive promoter
Protocol: (§1) B-1. Cellular In Vitro Assay for Determining Vasopressin Receptor Activity
(§2) The identification of agonists and antagonists of the V1a and V2 vasopressin receptors from humans, rats and dogs as well as the quantification of the activity of the compounds of the invention is carried out using recombinant cell lines. These cell lines originally derive from a hamster's ovary epithelial cell (Chinese Hamster Ovary, CHO K1, ATCC: American Type Culture Collection, Manassas, Va. 20108, USA). The test cell lines constitutively express the human, rat or dog V1a or V2 receptors. In case of the Gαq-coupled V1a receptors, cells are also stably transfected with a modified form of the calcium-sensitive photoproteins aequorin (human and rat V1a) or obe-lin (dog V1a), which, after reconstitution with the cofactor coelenterazine, emit light when there are increases in free calcium concentrations [Rizzuto R, Simpson A W, Brini M, Pozzan T, Nature 358, 325-327 (1992); Illarionov B A, Bondar V S, Illarionova V A, Vysotski E S, Gene 153 (2), 273-274 (1995)]. The resulting vasopressin receptor cells react to stimulation of the recombinantly expressed V1a receptors by intracellular release of calcium ions, which can be quantified by the resulting photoprotein luminescence. The Gs-coupled V2 receptors are stably transfected into cell lines expressing the gene for firefly luciferase under control of a CRE-responsible promoter. Activation of V2 receptors induces the activation of the CRE-responsive promoter via cAMP increase, thereby inducing the expression of firefly luciferase. The light emitted by photoproteins of V1a cell lines as well as the light emitted by firefly luciferase of V2 cell lines corresponds to the activation or inhibition of the respective vasopressin receptor. The bioluminescence of the cell lines is detected using a suitable luminometer [Milligan G, Marshall F, Rees S, Trends in Pharmacological Sciences 17, 235-237 (1996)].
Vasopressin V2 Receptor Cell Lines:
On the day before the assay, the cells are plated out in culture medium (DMEM/F12, 2% FCS, 2 mM glutamine, 10 mM HEPES) in 384-well microtiter plates and kept in a cell incubator (96% humidity, 5% v/v CO2, 37° C.). On the day of the assay, test compounds in various concentrations and the agonist [Arg^8]-vasopressin at EC50 concentration are added together to the wells, and plates are incubated for 3 hours in a cell incubator. Upon addition of the cell lysis reagent Triton™ and the substrate luciferin, luminescence of firefly luciferase is measured in a luminometer.

[2] = target: T2, human V1a receptor (Homo sapiens, UniProt P37288); experiment: Cellular in vitro assay for vasopressin receptor activity, V1a receptor cell line (aequorin luminescence); format: cell-based; conditions: Table 1A; for IC50: CHO cell line transfected with human V1a receptor, [Arg8]-vasopressin at EC50, read-out: IC50 hV1a; for ratio IC50 hV2/hV1a: selectivity V1a over V2
T2 construct: expressed in transfected cells; host or cells: CHO K1 (ATCC), also stably transfected with a modified aequorin
Protocol: as §1, §2
Vasopressin V1a Receptor Cell Lines:
On the day before the assay, the cells are plated out in culture medium (DMEM/F12, 2% FCS, 2 mM glutamine, 10 mM HEPES, 5 μg/ml coelenterazine) in 384-well microtiter plates and kept in a cell incubator (96% humidity, 5% v/v CO2, 37° C.). On the day of the assay, test compounds in various concentrations are placed for 10 minutes in the wells of the microtiter plate before the agonist [Arg^8]-vasopressin at EC50 concentration is added. The resulting light signal is measured immediately in a luminometer.

T1 sequence (P30518 whole entry): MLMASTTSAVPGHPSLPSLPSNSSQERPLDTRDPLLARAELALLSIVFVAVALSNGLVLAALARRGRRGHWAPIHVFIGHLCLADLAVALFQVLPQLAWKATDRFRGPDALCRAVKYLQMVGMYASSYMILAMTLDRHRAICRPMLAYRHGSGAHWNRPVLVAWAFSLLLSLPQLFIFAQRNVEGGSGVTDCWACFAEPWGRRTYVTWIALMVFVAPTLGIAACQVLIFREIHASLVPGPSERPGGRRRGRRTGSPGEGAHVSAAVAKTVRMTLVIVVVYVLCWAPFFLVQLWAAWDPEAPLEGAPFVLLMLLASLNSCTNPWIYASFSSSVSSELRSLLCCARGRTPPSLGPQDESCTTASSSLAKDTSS
T2 sequence (P37288 whole entry): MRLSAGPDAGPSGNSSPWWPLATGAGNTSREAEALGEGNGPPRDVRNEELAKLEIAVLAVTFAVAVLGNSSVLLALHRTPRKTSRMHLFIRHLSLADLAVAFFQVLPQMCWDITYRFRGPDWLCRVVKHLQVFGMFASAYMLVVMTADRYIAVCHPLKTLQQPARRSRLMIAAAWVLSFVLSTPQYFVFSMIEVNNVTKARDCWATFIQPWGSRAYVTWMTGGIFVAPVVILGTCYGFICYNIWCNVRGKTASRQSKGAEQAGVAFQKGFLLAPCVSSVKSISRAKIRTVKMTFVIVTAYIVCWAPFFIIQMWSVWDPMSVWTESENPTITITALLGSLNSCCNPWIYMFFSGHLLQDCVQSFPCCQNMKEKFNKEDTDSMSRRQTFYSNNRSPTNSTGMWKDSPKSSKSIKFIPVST

SMILES | IC50 [1] [nM] | IC50 [2] [nM] | ratio IC50 hV2/hV1a [2]
NC(=O)c1nc(Cn2nc(-c3ccc(Cl)cc3)n(C[C@H](O)C(F)(F)F)c2=O)nn1-c1ccccc1C(F)(F)F [Example 1, 3-({3-(4-Chlorophenyl)-5-oxo-4-[(2S)-3,3,3-trifluoro-2-hydroxypropyl]-4,5-dihydro-H-1,2,4-triazol-1-yl}methyl)-1-[2-(trifluoromethyl)phenyl]-1H-1,2,4-triazole-5-carboxamide] | 23.9 | 0.58 | 41.4
NC(=O)c1nc(Cn2nc(-c3ccc(Cl)cc3)n(C[C@@H](O)C(F)(F)F)c2=O)nn1-c1ccccc1C(F)(F)F [Example 2, 3-({3-(4-Chlorophenyl)-5-oxo-4-[(2R)-3,3,3-trifluoro-2-hydroxypropyl]-4,5-dihydro-1H-1,2,4-triazol-1-yl}methyl)-1-[2-(trifluoromethyl)phenyl]-1H-1,2,4-triazole-5-carboxamide] | 175 | 2.35 | 74.5
NC(=O)c1nc(Cn2nc(-c3ccc(Cl)cc3)n(C[C@H](O)C(F)(F)F)c2=O)nn1-c1ccccc1OC(F)(F)F [Example 3, 3-({3-(4-Chlorophenyl)-5-oxo-4-[(2S)-3,3,3-trifluoro-2-hydroxypropyl]-4,5-dihydro-1H-1,2,4-triazol-1-yl}methyl)-1-[2-(trifluoromethoxy)phenyl]-1H-1,2,4-triazole-5-carboxamide] | 75.5 | 1.25 | 60.4
NC(=O)c1nc(Cn2nc(-c3ccc(Cl)cc3)n(C[C@@H](O)C(F)(F)F)c2=O)nn1-c1ccccc1OC(F)(F)F [Example 4, 3-({3-(4-Chlorophenyl)-5-oxo-4-[(2R)-3,3,3-trifluoro-2-hydroxypropyl]-4,5-dihydro-1H-1,2,4-triazol-1-yl}methyl)-1-[2-(trifluoromethoxy)phenyl]-1H-1,2,4-triazole-5-carboxamide] | 665 | 9.65 | 68.9
CCOc1ccccc1-n1nc(Cn2nc(-c3ccc(Cl)cc3)n(C[C@H](O)C(F)(F)F)c2=O)nc1C(N)=O [Example 5, 3-({3-(4-Chlorophenyl)-5-oxo-4-[(2S)-3,3,3-trifluoro-2-hydroxypropyl]-4,5-dihydro-1H-1,2,4-triazol-1-yl}methyl)-1-(2-ethoxyphenyl)-1H-1,2,4-triazole-5-carboxamide] | 38.5 | 1.6 | 24.1
CNC(=O)c1ccccc1-n1nc(Cn2nc(-c3ccc(Cl)cc3)n(C[C@H](O)C(F)(F)F)c2=O)nc1C(N)=O [Example 6, 3-({3-(4-Chlorophenyl)-5-oxo-4-[(2S)-3,3,3-trifluoro-2-hydroxypropyl]-4,5-dihydro-1H-1,2,4-triazol-1-yl}methyl)-1-[2-(methylcarbamoyl)phenyl]-1H-1,2,4-triazole-5-carboxamide] | 975 | 12.9 | 75.6
CS(=O)(=O)c1ccccc1-n1nc(Cn2nc(-c3ccc(Cl)cc3)n(C[C@H](O)C(F)(F)F)c2=O)nc1C(N)=O [Example 7, 3-({3-(4-Chlorophenyl)-5-oxo-4-[(2S)-3,3,3-trifluoro-2-hydroxypropyl]-4,5-dihydro-1H-1,2,4-triazol-1-yl}methyl)-1-[2-(methylsulfonyl)phenyl]-1H-1,2,4-triazole-5-carboxamide] | 712 | 17.5 | 40.7
NC(=O)c1nc(Cn2nc(-c3ccc(Cl)cc3)n(CC(=O)C(F)(F)F)c2=O)nn1-c1ccccc1C(F)(F)F [Example 8, 3-{[3-(4-chlorophenyl)-5-oxo-4-(3,3,3-trifluoro-2-oxopropyl)-4,5-dihydro-H-1,2,4-triazol-1-yl]methyl}-1-[2-(trifluoromethyl)phenyl]-1H-1,2,4-triazole-5-carboxamide (ketone form) or 3-{[3-(4-chlorophenyl)-5-oxo-4-(3,3,3-trifluoro-2,2-dihydroxypropyl)-4,5-dihydro-H-1,2,4-triazol-1-yl]methyl}-1-[2-(trifluoromethyl)phenyl]-1H-1,2,4-triazole-5-carboxamide (hydrate form)] | 33.7 | 1.85 | 18.2
NC(=O)c1nc(Cn2nc(-c3ccc(Cl)cc3)n(CC(=O)C(F)(F)F)c2=O)nn1-c1ccccc1OC(F)(F)F [Example 9, 3-{[3-(4-chlorophenyl)-5-oxo-4-(3,3,3-trifluoro-2-oxopropyl)-4,5-dihydro-H-1,2,4-triazol-1-yl]methyl}-1-[2-(trifluoromethoxy)phenyl]-1H-1,2,4-triazole-5-carboxamide (ketone form) or 3-{[3-(4-chlorophenyl)-5-oxo-4-(3,3,3-trifluoro-2,2-dihydroxypropyl)-4,5-dihydro-1H-1,2,4-triazol-1-yl]methyl}-1-[2-(trifluoromethoxy)phenyl]-1H-1,2,4-triazole-5-carboxamide (hydrate form)] | 106 | 8.95 | 11.9
CCOc1ccccc1-n1nc(Cn2nc(-c3ccc(Cl)cc3)n(C[C@@H](O)C(F)(F)F)c2=O)nc1C(N)=O [Example 10, 3-({3-(4-Chlorophenyl)-5-oxo-4-[(2R)-3,3,3-trifluoro-2-hydroxypropyl]-4,5-dihydro-H-1,2,4-triazol-1-yl}methyl)-1-(2-ethoxyphenyl)-1H-1,2,4-triazole-5-carboxamide] | 890 | 8.2 | 108.5
